18 molecules from PubChem BioAssay (NCI) can be followed below.

What all share (assay): growth of human tumour cells (NCI), 48 h
The test system of experiment [1] is RPMI-8226 leukemia.
Experiment [2] relates to NCI-H460 lung.
Experiment [3] has as its system SF-539 CNS.
Experiment [4] deals with A549 NSCLC.
The subject of experiment [5] is HL-60(TB) leukemia.
Experiment [6] concerns OVCAR-8 ovarian.
For experiment [7], the system named is SK-MEL-28 melanoma.
The subject of experiment [8] is NCI-H226 lung.
In experiment [9] the test system is HT29 colon.
The subject of experiment [10] is UACC-62 melanoma.

The structures appear in SMILES notation.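 Tested at 5 concentrations; 48 h exposure; 96-well plates; endpoints linearly interpolated, else capped at highest concentration. Abbreviation: GI50, concentration required for 50% inhibition of growth. The concentration for full growth arrest is given as TGI.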

Take `Cc1cc2cc3ccc(N(C)C)cc3nc2cc1N`: the GI50 in [1] was 0.637 µM; in [2], 0.234 µM; in experiment [3], 0.658 µM; in [4] it was 0.431 µM; in experiment [5], 0.805 µM; in experiment [6], 0.374 µM. For the same molecule, the GI50 in [7] is 1.69 µM; in [8], 0.584 µM; in experiment [9], 0.327 µM; in experiment [10], 0.744 µM. Also, the TGI in experiment [1] was determined as 5.55 µM; in experiment [2], 0.68 µM; in experiment [3] it was 2.49 µM; in [4], 2.61 µM; in [5], 5.09 µM; in [6] it was 2.36 µM. Besides, the TGI in experiment [7] was 4.74 µM; in experiment [8] it was 3.6 µM; in [9], 1.76 µM; in experiment [10], 2.71 µM.

On to `CCN1C(=O)CCCc2c1ccc(Nc1ncc(Cl)c(NC3[C@@H](C(N)=O)[C@@H]4C=C[C@H]3C4)n1)c2OC` (stereo not given in full), for which the GI50 was 0.976 µM in [1]; 0.661 µM in experiment [2]; 1.23 µM in [3]; 0.741 µM in [4]; 0.667 µM in experiment [5]; 1.41 µM in [6]. Besides, the GI50 in experiment [7] was 1.56 µM; in experiment [8] it was 1.56 µM; in [9], 0.791 µM; in experiment [10], 0.933 µM. Besides, the TGI in [1] was 4.26 µM; in [2] it was 13.4 µM; in experiment [3], 8.94 µM; in experiment [4] it was 5.88 µM; in experiment [5], 5.46 µM; in experiment [6], 32.2 µM. For the same molecule, the TGI in [7] came out at 6.96 µM; in [8] it was 12.7 µM; in experiment [9] it was 9.06 µM; in experiment [10], 2.59 µM.

As for `O=S(=O)(O)c1ccc(N=Nc2nc(C(F)(F)F)c(C(F)(F)F)[nH]2)cc1`, the TGI was above 100 µM in experiment [1]; above 100 µM in experiment [2]; 65.9 µM in experiment [3]; above 100 µM in [4]; above 100 µM in experiment [5]; above 100 µM in experiment [6]. Also, the TGI in [7] was 36.2 µM; in experiment [8], above 100 µM; in experiment [9], above 100 µM; in experiment [10], 72.2 µM.

`CCCCC(C)C(OC(=O)CC(CC(=O)O)C(=O)O)C(CC(C)CC(O)CCCCC(O)CC(O)C(C)N)OC(=O)CC(CC(=O)O)C(=O)O` (stereo not given): the TGI in experiment [1], in [2], in experiment [3], in [4], in experiment [5] and in experiment [6] was above 100 µM each time. Moreover, the TGI in experiment [7], in [8], in experiment [9] and in experiment [10] was above 100 µM each time.

Turning to `N#Cc1c(Br)n(C2OC(CO)C(O)C2O)c2ncnc(N)c12` (stereo not given), the GI50 in experiment [1] was 1.26 µM; in [2], 0.574 µM; in experiment [3] it was 3.91 µM; in [4] it was 1.13 µM; in [5], 0.608 µM; in experiment [6], 1.59 µM. The GI50 in experiment [7] was 2.14 µM; in experiment [8] it was 9.16 µM; in experiment [9], 0.885 µM; in experiment [10], 2.64 µM. Moreover, the TGI in experiment [1] is 6.69 µM; in experiment [2], 4.56 µM; in [3] it was 19.3 µM; in experiment [4], above 27 µM; in experiment [5], 2.59 µM; in experiment [6] it was above 100 µM. Also, the TGI is 12.7 µM in experiment [7], above 100 µM in experiment [8], above 36.2 µM in experiment [9] and 6.09 µM in [10].

Take `ON(Cc1ccccc1)C(=S)c1ccccc1`: the TGI in experiment [1] was above 100 µM; in [2], 22.3 µM; in [3], 44.4 µM; in experiment [4] it was above 100 µM; in [5] it was 7.75 µM; in experiment [6], above 69.8 µM. The TGI in experiment [7] was above 100 µM; in experiment [8], 93 µM; in experiment [9] it was above 100 µM; in [10], 25.4 µM.

For `O=C1C2=C(c3ccccc31)C(c1ccccc1)N1C(=O)CSC1=N2` (stereo not given), the TGI is above 100 µM in experiment [1]; above 100 µM in [2]; 97.1 µM in [3]; above 100 µM in experiment [4]; 95.8 µM in experiment [5]; above 100 µM in experiment [6]. For the same molecule, the TGI in experiment [7] is above 100 µM; in [8], above 100 µM; in [9], 96.9 µM; in experiment [10], above 100 µM.

`CN(COC(=O)c1ccccc1)c1nc(N(C)COC(=O)c2ccccc2)nc(N(C)COC(=O)c2ccccc2)n1`: the TGI in experiment [1] was above 100 µM; in experiment [2], above 100 µM; in experiment [3] it was 38.9 µM; in experiment [4], above 100 µM; in experiment [5], above 100 µM; in experiment [6], above 100 µM. Moreover, the TGI in [7], in experiment [8], in [9] and in experiment [10] was above 100 µM throughout.

Take `COc1cccc(-c2ccc3c(c2)C2CCN(Cc4ccccc4)C3C2)c1` (stereo not given): the GI50 in experiment [1] was 4.93 µM; in experiment [2], 4.13 µM; in experiment [3], 10.3 µM; in [4], 7.72 µM; in experiment [5], 5.71 µM; in [6] it was 11.2 µM. Also, the GI50 in [7] is 13.4 µM; in experiment [8] it was 11.1 µM; in experiment [9], 3.24 µM; in experiment [10], 8.48 µM. Besides, the TGI came to 23.6 µM in [1]; 15.7 µM in [2]; 23 µM in experiment [3]; 31.8 µM in experiment [4]; 21 µM in [5]; 32.5 µM in experiment [6]. In addition, the TGI in experiment [7] is 65.9 µM; in experiment [8], 30.4 µM; in [9], 12.2 µM; in [10] it was 22 µM.

In the case of `Clc1ccc(-c2nnc(-c3cccc4ccccc34)o2)cc1Cl`, the TGI in experiment [1], in [2], in [3], in experiment [4], in [5] and in experiment [6] was above 100 µM each time. Moreover, the TGI in experiment [7], in experiment [8], in experiment [9] and in [10] was above 100 µM throughout.

Regarding `O=[N+]([O-])c1ccc(-c2noc(-c3ccc(Cl)cc3)c2C2=NCCN2)cc1`, the TGI in [1], in [2], in [3], in experiment [4], in experiment [5] and in [6] was above 100 µM each time. Also, the TGI in experiment [7], in experiment [8], in experiment [9] and in experiment [10] was above 100 µM each time.

Turning to `COc1cccc(-c2nn(-c3ccccc3)cc2-c2ccnc(NCCNC(=O)Nc3cccc(C(F)(F)F)c3)c2)c1`, the GI50 was 2.23 µM in [1]; 2 µM in experiment [2]; 1.75 µM in experiment [3]; 3.38 µM in [4]; 1.54 µM in experiment [5]; 3.3 µM in [6]. The GI50 in experiment [7] was 1.83 µM; in experiment [8], 2.07 µM; in experiment [9] it was 1.68 µM; in experiment [10], 1.85 µM. Further, the TGI in [1] worked out at 5.54 µM; in experiment [2], 3.85 µM; in experiment [3] it was 3.32 µM; in [4], 11.5 µM; in experiment [5], 4.23 µM; in [6], 9.77 µM. The TGI was 3.77 µM in experiment [7], 5.32 µM in [8], 3.47 µM in [9] and 3.73 µM in [10].

Consider `CN(Cc1cccc(F)c1)c1ccc(CO)c(Cl)c1`, for which the GI50 is 13.3 µM in experiment [1]; 1.28 µM in experiment [2]; 33.2 µM in [3]; 4.91 µM in experiment [4]; 22 µM in [5]; 20.3 µM in experiment [6]. Also, the GI50 is 20.7 µM in experiment [7], 0.123 µM in experiment [8], 7.02 µM in experiment [9] and 0.288 µM in experiment [10]. The TGI is above 68.3 µM in [1]; 13.5 µM in experiment [2]; above 100 µM in experiment [3]; 37 µM in experiment [4]; above 77.2 µM in [5]; above 100 µM in experiment [6]. In addition, the TGI in experiment [7] was above 100 µM; in experiment [8], 0.275 µM; in [9], 59.7 µM; in [10], 2.42 µM.

Turning to `Oc1ccc(-c2nc3ccc4[nH]ncc4c3c3c2CCCC3)c(F)c1`, the GI50 was 1.8 µM in experiment [1]; 2.18 µM in experiment [2]; 2.41 µM in experiment [3]; 1.17 µM in [4]; 2.93 µM in experiment [5]; 1.92 µM in experiment [6]. In addition, the GI50 is 2.74 µM in [7], 5.26 µM in experiment [8], 2.7 µM in experiment [9] and 1.67 µM in [10]. Also, the TGI came out at 10.7 µM in [1]; 11.1 µM in experiment [2]; 10.2 µM in experiment [3]; 6.11 µM in [4]; 8.82 µM in experiment [5]; 9.39 µM in experiment [6]. Also, the TGI stood at 12.4 µM in experiment [7], 69.9 µM in experiment [8], 11.2 µM in experiment [9] and 4.37 µM in [10].

With `CC(C)N1CCN(Cc2ccc3c(NNC(=O)c4ccccc4)nc4cc(F)ccc4n23)CC1`, the GI50 was 0.476 µM in [1]; 0.128 µM in [2]; 0.403 µM in [3]; 0.465 µM in [4]; 0.322 µM in [5]; 0.381 µM in experiment [6]. The GI50 in experiment [7] was 0.599 µM; in experiment [8], 0.534 µM; in experiment [9], 0.673 µM; in experiment [10] it was 0.388 µM. Also, the TGI in experiment [1] was found to be 3.18 µM; in [2], 1.4 µM; in [3], 1.82 µM; in experiment [4], 8.47 µM; in experiment [5], 1.43 µM; in [6], 27.4 µM. The TGI in [7] is 4.58 µM; in [8] it was 8.18 µM; in [9], 7.46 µM; in experiment [10], 2.67 µM.

For `CN(C)C(=Nc1nc(=[N+](C)C)ss1)N(C)C`, the TGI in [1], in [2], in experiment [3], in [4], in [5] and in experiment [6] was above 100 µM throughout. For the same molecule, the TGI in experiment [7], in [8], in experiment [9] and in [10] was above 100 µM in each case.

Regarding `CCN(Cc1ccc(F)cc1)c1ccc(CO)c(C)c1`, the GI50 in experiment [1] was 6.69 µM; in experiment [2], 11.5 µM; in experiment [3], 15 µM; in experiment [4], 17.1 µM; in experiment [5], 9.86 µM; in experiment [6], 11.9 µM. The GI50 in experiment [7] was 13.3 µM; in experiment [8], 0.291 µM; in [9] it was 20.7 µM; in experiment [10], 1.19 µM. The TGI in experiment [1] turned out to be 37.1 µM; in experiment [2] it was 32.3 µM; in experiment [3] it was 29.8 µM; in experiment [4], 69.4 µM; in [5], 39.3 µM; in [6] it was 38.4 µM. Moreover, the TGI in experiment [7] came out at 28.6 µM; in experiment [8], 1.12 µM; in experiment [9], 55.8 µM; in experiment [10] it was 6.87 µM.

For the molecule `CCOc1cc(Br)c(C(C)NC(=O)c2cccc(OC)c2)cc1OCC` (stereo not given), the GI50 in experiment [1] was 13.9 µM; in experiment [2] it was 6.02 µM; in experiment [3], 7.2 µM; in experiment [4] it was 10.8 µM; in [5] it was 3.8 µM; in experiment [6], 25.6 µM. Besides, the GI50 in [7] was 12 µM; in experiment [8] it was 21.4 µM; in experiment [9] it was 5.01 µM; in experiment [10], 6.61 µM. Besides, the TGI is above 92.1 µM in [1]; above 81.5 µM in experiment [2]; 42.8 µM in [3]; above 100 µM in experiment [4]; above 61.3 µM in [5]; above 100 µM in experiment [6]. Moreover, the TGI in experiment [7], in [8], in [9] and in experiment [10] was above 100 µM each time.
